Reference: article PMC10786919, “Design-rules for stapled peptides with in vivo activity and their application to Mdm2/X antagonists” (Nature Communications, 2024)
Values after ≈ are worked out from the molar mass of the structure shown. Read-outs that look alike come from different tables or passages of the source. Positions of bridges follow the written chain, without caps; N, C: chain ends. Non-standard residues stand in square brackets, D forms with d. Residues, ends and D or L forms follow the SMILES beside them. Lys(N3) = [N-]=[N+]=NCCCC[C@H](N)C(=O)O; R8 = C=CCCCCCC[C@@](C)(N)C(=O)O; Cba = N[C@@H](CC1CCC1)C(=O)O; S5 = C=CCCC[C@](C)(N)C(=O)O; βAla = NCCC(=O)O

Key:
[1] = Lactate dehydrogenase (LDH) release assay; assay type: cell-based
In short: (§1)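 Membrane damage measured as lactate dehydrogenase release (CytoTox-ONE kit) from p53-responsive β-lactamase reporter HCT116 cells plated at 8000 per well. Final DMSO 0.5%; geometric mean reported from a minimum of three biological replicates.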

HCT116 cells = experiment: Lactate dehydrogenase (LDH) release assay; assay type: cell-based
In short: as §1

[2] = Solubility assay (kinetic solubility, PBS pH 7); assay type: physicochemical; conditions: pH 7, aqueous buffer, kinetic from dmso stock, pH 7, PBS; read-out: Solubility
In short: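 Next, measure peak areas of sample and standard. Finally, multiply their ratio by the standard concentration to obtain solubility (µM).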

in vitro = experiment: in vitro
Description: Further, there have been several literature reports[18]–[20] that highlight that the combination of hydrophobic character and positive charge can result in mast cell degranulation (MCD), a potentially fatal condition[18]–[20]. […] The NanoClick assay[22] determines permeability of azide-labeled peptides by combining intracellular copper-free click chemistry with NanoBRET technology. Specifically, if an azido-peptide achieves cytosolic exposure, it will react with a cyclooctyne-decorated Halotag construct that is fused with nanoluciferase. This reaction blocks the click labelling of a subsequently added azido-labeled acceptor dye, thus decreasing the NanoBRET signal in a manner that is target-binding agnostic.
This assay was previously described in detail. The assay was performed in 384-well white assay plates (PerkinElmer CUSG03874) using assay-ready frozen cells that had been transiently transfected with the NanoLuc-HaloTag vector that were thawed at plated in complete media at a density of 6000 cells/ well and incubated at 37 °C 5% CO2 overnight. DIBAC-CA was diluted in assay buffer (OptiMem without phenol red + 1% FBS) and added to cells at a final concentration of 3 μM and incubated at 37 °C 5% CO2 for 1 h. Cells were subsequently centrifuged using a BlueWasher instrument (Blue Cat Bio) to remove the DIBAC-CA solution and washed two times with HBSS (Ca2 + , Mg2 + ). A volume of 30 μL of assay buffer was added back to cell plates. Peptides were serially diluted 4-fold in DMSO with a Hamilton Star apparatus and then delivered into assay plates with an acoustic liquid handler Labcyte ECHO (300 nl, 1% DMSO in-well concentration). After incubating cells with peptide for the desired time (4 or 18 h), the HaloTag ligand, NanoBret618-azide, was added to each well at a final concentration of 10 μM. […] Following addition of NanoBRET Nano-Glo Substrate, donor emission (450 nm) and acceptor emission (610 nm) were measured using an Envision instrument (PerkinElmer).

[3] = Experimental LogD (partition coefficient); conditions: not stated, Partition Coeff LogD
[4] = Nanoclick permeability assay EC50
[5] = 0% FBS 4Hr, read-out: LDH: Cytotoxicity assay: EC50

Compound: CC(C)C[C@@H]1NC(=O)[C@H](C)NC(=O)[C@H](Cc2c[nH]c3ccccc23)NC(=O)[C@H](Cc2ccc(O)cc2)NC(=O)[C@H](CCC(=O)O)NC(=O)[C@](C)(NC(=O)[C@H](Cc2ccccc2)NC(=O)[C@H](CO)NC(=O)[C@@H](NC(=O)[C@H](CO)NC(=O)CNC(=O)[C@H](CO)NC(=O)[C@H](CCCCN=[N+]=[N-])NC(=O)[C@@H](N)CCC(=O)O)[C@@H](C)O)CCCCCCC=CCCC[C@@](C)(C(N)=O)NC(=O)[C@H](CC(C)C)NC1=O [MP-0180]
- EC50 ([1]; LDH: Cytotoxicity assay: EC50): > 50600 nM
- LDH: Cytotoxicity assay: % Effect (HCT116 cells): 13.96%
- solubility kinetic [2]: 24 µM (≈ 46.4 µg/mL)
- cell entry EC50 (in vitro; [4]): 495 nM
- logD [3]: 2.21

Compound: CC(C)C[C@@H]1NC(=O)[C@H](C)NC(=O)[C@H](Cc2c[nH]c3ccccc23)NC(=O)[C@H](Cc2ccc(O)cc2)NC(=O)[C@H](CCC(=O)O)NC(=O)[C@](C)(NC(=O)[C@H](Cc2ccccc2)NC(=O)[C@H](CO)NC(=O)[C@@H](NC(=O)[C@H](CO)NC(=O)CNC(=O)[C@H](CO)NC(=O)[C@H](CCCCN=[N+]=[N-])NC(=O)[C@H](CCC(=O)O)NC(=O)[C@@H](N)CCC(=O)O)[C@@H](C)O)CCCCCCC=CCCC[C@@](C)(C(N)=O)NC(=O)[C@H](CC(C)C)NC1=O [MP-0181] (H-EE[Lys(N3)]SGSTSF[R8]EYWALL[S5]-NH2; staple 10-17)
- EC50 ([1]; LDH: Cytotoxicity assay: EC50): > 50600 nM
- LDH: Cytotoxicity assay: % Effect (HCT116 cells): 9.12%
- solubility kinetic [2]: 106 µM (≈ 219 µg/mL)
- cell entry EC50 (in vitro; [4]): 2070 nM
- logD [3]: 2.05

Compound: CC(=O)N[C@@H](CCCCN=[N+]=[N-])C(=O)NCCC(=O)N[C@@H](CC(C)C)C(=O)N[C@H](C(=O)N[C@@H](Cc1ccccc1)C(=O)N[C@]1(C)CCCCCCC=CCCC[C@@](C)(C(=O)NCC(=O)NCC(=O)NCC(=O)NCC(=O)NCC(=O)NCC(N)=O)NC(=O)[C@H](CC2CCC2)NC(=O)[C@H](CCC(N)=O)NC(=O)[C@H](C)NC(=O)[C@H](Cc2c[nH]c3ccccc23)NC(=O)[C@H](Cc2ccc(O)cc2)NC(=O)[C@H](CCC(=O)O)NC1=O)[C@@H](C)O [MP-289] (Ac-[Lys(N3)][βAla]LTF[R8]EYWAQ[Cba][S5]GGGGGG-NH2; staple 6-13)
- EC50 [1, 5]: > 50700 nM
- EC50 ([1]; 10% FBS 16Hr, read-out: LDH: Cytotoxicity assay: EC50): > 50700 nM
- LDH: Cytotoxicity assay: % Effect (HCT116 cells; 0% FBS 4Hr): -4.216%
- LDH: Cytotoxicity assay: % Effect (HCT116 cells; 10% FBS 16Hr): 3.579%
- solubility kinetic [2]: 142 µM (≈ 296 µg/mL)
- cell entry EC50 (in vitro): 615 nM
- logD [3]: 2.58

Compound: CC(=O)N[C@@H](CCCCN=[N+]=[N-])C(=O)NCCC(=O)N[C@@H](CC(C)C)C(=O)N[C@H](C(=O)N[C@@H](Cc1ccccc1)C(=O)N[C@]1(C)CCCCCCC=CCCC[C@@](C)(C(=O)N[C@@H](CCC(=O)O)C(=O)N[C@@H](CC(N)=O)C(=O)N[C@@H](Cc2ccccc2)C(N)=O)NC(=O)[C@H](CC2CCC2)NC(=O)[C@H](CCC(N)=O)NC(=O)[C@H](C)NC(=O)[C@H](Cc2c[nH]c3ccccc23)NC(=O)[C@H](Cc2ccc(O)cc2)NC(=O)[C@H](CCC(=O)O)NC1=O)[C@@H](C)O [MP-328] (Ac-[Lys(N3)][βAla]LTF[R8]EYWAQ[Cba][S5]ENF-NH2; staple 6-13)
- EC50 [1, 5]: > 50600 nM
- LDH: Cytotoxicity assay: % Effect (HCT116 cells; 0% FBS 4Hr): -1.88%
- solubility kinetic [2]: 108 µM (≈ 230 µg/mL)
- cell entry EC50 (in vitro): 66.3 nM
- logD [3]: 2.65

Compound: CC(C)C[C@@H]1NC(=O)[C@H](C)NC(=O)[C@H](Cc2c[nH]c3ccccc23)NC(=O)[C@H](Cc2ccc(O)cc2)NC(=O)[C@H](CCC(=O)O)NC(=O)[C@](C)(NC(=O)[C@H](Cc2ccccc2)NC(=O)[C@H](CO)NC(=O)[C@@H](NC(=O)[C@H](CO)NC(=O)CNC(=O)[C@H](CO)NC(=O)[C@@H](N)CCCCN=[N+]=[N-])[C@@H](C)O)CCCCCCC=CCCC[C@@](C)(C(=O)N[C@@H](CCC(=O)O)C(=O)N[C@@H](CCC(=O)O)C(=O)N[C@@H](CCC(=O)O)C(N)=O)NC(=O)[C@H](CC(C)C)NC1=O [MP-951] (H-[Lys(N3)]SGSTSF[R8]EYWALL[S5]EEE-NH2; staple 8-15)
- EC50 ([1]; LDH: Cytotoxicity assay EC50): > 50000 nM
- solubility kinetic [2]: 119 µM (≈ 261 µg/mL)
- cell entry EC50 (in vitro; [4]): 2150 nM
- logD [3]: 1.94
